The source of these data is patent US10730886B2, “Compound having effect of inhibiting platelet aggregation and salt thereof, and composition for preventing or treating thrombotic diseases, containing same” (SHIN POONG PHARMACEUTICAL CO., LTD., priority 2015, dated 2020).

The structures appear in SMILES notation.

For this data set, the system named is ICR mouse. Description: Bleeding side effect by repeated administration (tail bleeding time). The settings on record: 50 mg/kg oral once daily for 7 days.

Method: One hour after the last administration, the mice were anesthetized by breathing, and the 4 mm portion from the tail tip of the mice was cut. Then, the tail tip of the mice was immersed in a transparent 15-ml tube containing the pre-prepared 37° C. saline. The time when blood was not spread any more and the bleeding stopped was measured.

As to `CCc1occc(=O)c1OC(=O)c1ccc(O)c(OC)c1` [Example 13, 2-Ethyl-4-oxo-4H-pyran-3-yl 4-hydroxy-3-methoxybenzoate], the “Bleeding time” value was 1.6 ± 0.4 min.

`COc1cc(C(=O)Oc2c(C)occc2=O)ccc1O` [Example 14, 2-Methyl-4-oxo-4H-pyran-3-yl 4-hydroxy-3-methoxybenzoate]: the “Bleeding time” value turned out to be 1.6 ± 0.3 min.
